Source: PMC9558423 (Molecular nutrition & food research, 2020)
Counter-ions that a name gives are not always drawn. Like-named read-outs stand apart in the source and are kept apart here. Marks after values point to notes of the source that are not given here.

Key:
[1] = for Qualitative Tmax (urine collection with greatest excretion): 12h urine collections, np = no peak; for Cmax (nmol excreted) / Tmax: urine; for Cmax (nmol excreted): mean ± SD; for Tmax: female, Sprague Dawley, rat, po
[2] = for Qualitative Tmax (blood collection with greatest plasma level): blood every 6h, np = no peak; for Plasma AUC: plasma 0–48h, trapezoidal; for Plasma AUC / Cmax: mean ± SD; for Cmax: plasma

For `OC[C@H]1O[C@@H](Oc2cc3c(O)cc(O)cc3[o+]c2-c2cc(O)c(O)c(O)c2)[C@H](O)[C@@H](O)[C@H]1O` [Delphinidin Galactoside], which “Qualitative Tmax (urine collection with greatest excretion)” value ([1]; High dose (1000 mg/kg bw)) is on record?
Its value is 0 to 12 h.

And the “Cmax (nmol excreted)” value ([1]; High dose (1000 mg/kg bw))?
Its value is 1.74 ± 0.22 nmol excreted.

And the “Qualitative Tmax (urine collection with greatest excretion)” value ([1]; Low dose (75 mg/kg bw))?
The value was “np”.

And the “Cmax (nmol excreted)” value ([1]; Low dose (75 mg/kg bw))?
Its value is “np”.

And the “Qualitative Tmax (urine collection with greatest excretion)” value ([1]; Medium dose (350 mg/kg bw))?
Its value is 0 to 12 h.

And the “Cmax (nmol excreted)” value ([1]; Medium dose (350 mg/kg bw))?
Its value is 0.98 ± 0.20 nmol excreted.

For `OC[C@H]1O[C@@H](Oc2cc3c(O)cc(O)cc3[o+]c2-c2cc(O)c(O)c(O)c2)[C@H](O)[C@@H](O)[C@@H]1O` [Delphinidin Glucoside, delphindin-3-O-glucoside], which “Qualitative Tmax (urine collection with greatest excretion)” value ([1]; High dose (1000 mg/kg bw)) is on record?
Its value is 0 to 24 h.

And the “Cmax (nmol excreted)” value ([1]; High dose (1000 mg/kg bw))?
The value was 0.94 ± 0.22 nmol excreted.

And the “Qualitative Tmax (urine collection with greatest excretion)” value ([1]; Low dose (75 mg/kg bw))?
Its value is “np”.

And the “Cmax (nmol excreted)” value ([1]; Low dose (75 mg/kg bw))?
The value was “np”.

And the “Qualitative Tmax (urine collection with greatest excretion)” value ([1]; Medium dose (350 mg/kg bw))?
Its value is 0 to 24 h.

What about the “Cmax (nmol excreted)” value ([1]; Medium dose (350 mg/kg bw)) of the same compound?
Its value is 0.81 ± 0.14 nmol excreted.

For `COc1cc(/C=C/C(=O)O)ccc1OS(=O)(=O)O` [Ferulic acid sulfate], which “Qualitative Tmax (urine collection with greatest excretion)” value ([1]; High dose (1000 mg/kg bw)) is on record?
The value was 0 to 12 h.

And the “Cmax (nmol excreted)” value ([1]; High dose (1000 mg/kg bw))?
Its value is 18.7 ± 14.9 nmol excreted.

What about the “Qualitative Tmax (urine collection with greatest excretion)” value ([1]; Low dose (75 mg/kg bw)) of the same compound?
Its value is “np”.

And the “Cmax (nmol excreted)” value ([1]; Low dose (75 mg/kg bw))?
Its value is “np”.

And the “Qualitative Tmax (urine collection with greatest excretion)” value ([1]; Medium dose (350 mg/kg bw))?
The value was 0 to 12 h.

What about the “Cmax (nmol excreted)” value ([1]; Medium dose (350 mg/kg bw)) of the same compound?
The value was 7.41 ± 3.52 nmol excreted.

What about the “Qualitative Tmax (blood collection with greatest plasma level)” value ([2]; High dose (1000 mg/kg bw)) of the same compound?
Its value is 6 h.

What about the “Plasma AUC” value ([2]; High dose (1000 mg/kg bw)) of the same compound?
The value was 9.12 ± 2.89 ^x uM*h.

And the Cmax ([2]; High dose (1000 mg/kg bw))?
Its Cmax is 825 ± 317 nM.

And the “Qualitative Tmax (blood collection with greatest plasma level)” value ([2]; Low dose (75 mg/kg bw))?
Its value is “np”.

And the “Plasma AUC” value ([2]; Low dose (75 mg/kg bw))?
Its value is 6.16 ± 1.50 ^x uM*h.

And the Cmax ([2]; Low dose (75 mg/kg bw))?
Its Cmax is “np”.

What about the “Qualitative Tmax (blood collection with greatest plasma level)” value ([2]; Medium dose (350 mg/kg bw)) of the same compound?
Its value is 6 h.

And the “Plasma AUC” value ([2]; Medium dose (350 mg/kg bw))?
Its value is 6.33 ± 3.04 ^x uM*h.

And the Cmax ([2]; Medium dose (350 mg/kg bw))?
The Cmax was 262 ± 169 nM.

With `COc1cc(-c2[o+]c3cc(O)cc(O)c3cc2O[C@@H]2O[C@H](CO)[C@H](O)[C@H](O)[C@H]2O)cc(OC)c1O` [Malvidin Galactoside, malvidin-3-O-galactoside] as the compound, how does the “Qualitative Tmax (urine collection with greatest excretion)” value ([1]; High dose (1000 mg/kg bw)) read?
The value was 0 to 12 h.

What about the “Cmax (nmol excreted)” value ([1]; High dose (1000 mg/kg bw)) of the same compound?
The value was 14.2 ± 1.3 nmol excreted.

What about the “Qualitative Tmax (urine collection with greatest excretion)” value ([1]; Low dose (75 mg/kg bw)) of the same compound?
The value was “np”.

And the “Cmax (nmol excreted)” value ([1]; Low dose (75 mg/kg bw))?
Its value is “np”.

And the “Qualitative Tmax (urine collection with greatest excretion)” value ([1]; Medium dose (350 mg/kg bw))?
Its value is 0 to 12 h.

And the “Cmax (nmol excreted)” value ([1]; Medium dose (350 mg/kg bw))?
Its value is 7.36 ± 2.00 nmol excreted.

And the “Time of maximal urinary excretion after dosing” value ([1]; as stated in text/figure legend, doses not separated)?
The value was ≤ 12 h.

With `COc1cc(-c2[o+]c3cc(O)cc(O)c3cc2O[C@@H]2O[C@H](CO)[C@@H](O)[C@H](O)[C@H]2O)cc(OC)c1O` [Malvidin Glucoside, malvidin-3-O-glucoside] as the compound, how does the “Qualitative Tmax (urine collection with greatest excretion)” value ([1]; High dose (1000 mg/kg bw)) read?
The value was 0 to 12 h.

What about the “Cmax (nmol excreted)” value ([1]; High dose (1000 mg/kg bw)) of the same compound?
Its value is 10.7 ± 0.9 nmol excreted.

And the “Qualitative Tmax (urine collection with greatest excretion)” value ([1]; Low dose (75 mg/kg bw))?
Its value is “np”.

What about the “Cmax (nmol excreted)” value ([1]; Low dose (75 mg/kg bw)) of the same compound?
Its value is “np”.

And the “Qualitative Tmax (urine collection with greatest excretion)” value ([1]; Medium dose (350 mg/kg bw))?
The value was 0 to 12 h.

What about the “Cmax (nmol excreted)” value ([1]; Medium dose (350 mg/kg bw)) of the same compound?
Its value is 6.57 ± 0.57 nmol excreted.

Which results are given for `COc1cc(-c2[o+]c3cc(O)cc(O)c3cc2OC2OC(CO)C(O)C(O)C2O)cc(O)c1O` (stereo not shown) [Petunidin Galactoside, petunidin-3-O-galactoside]?
Qualitative Tmax (urine collection with greatest excretion) ([1]; High dose (1000 mg/kg bw)): 0 to 12 h; Cmax (nmol excreted) ([1]; High dose (1000 mg/kg bw)): 1.73 ± 0.38 nmol excreted; Qualitative Tmax (urine collection with greatest excretion) ([1]; Low dose (75 mg/kg bw)): np; Cmax (nmol excreted) ([1]; Low dose (75 mg/kg bw)): np; Qualitative Tmax (urine collection with greatest excretion) ([1]; Medium dose (350 mg/kg bw)): 0 to 12 h; Cmax (nmol excreted) ([1]; Medium dose (350 mg/kg bw)): 0.49 ± 0.23 nmol excreted

For `COc1cc(-c2[o+]c3cc(O)cc(O)c3cc2O[C@@H]2O[C@H](CO)[C@@H](O)[C@H](O)[C@H]2O)cc(O)c1O` [Petunidin Glucoside, petunidin-3-O-glucoside], which “Qualitative Tmax (urine collection with greatest excretion)” value ([1]; High dose (1000 mg/kg bw)) is on record?
The value was 0 to 12 h.

What about the “Cmax (nmol excreted)” value ([1]; High dose (1000 mg/kg bw)) of the same compound?
The value was 0.94 ± 0.19 nmol excreted.

And the “Qualitative Tmax (urine collection with greatest excretion)” value ([1]; Low dose (75 mg/kg bw))?
The value was “np”.

And the “Cmax (nmol excreted)” value ([1]; Low dose (75 mg/kg bw))?
Its value is “np”.

And the “Qualitative Tmax (urine collection with greatest excretion)” value ([1]; Medium dose (350 mg/kg bw))?
Its value is 0 to 12 h.

What about the “Cmax (nmol excreted)” value ([1]; Medium dose (350 mg/kg bw)) of the same compound?
Its value is 0.37 ± 0.14 nmol excreted.

What does the source list for `O=c1c(O)c(-c2ccc(O)c(O)c2)oc2cc(O)cc(O)c12` [Quercetin, quercetin]?
Cmax (nmol excreted) ([1]; High dose (1000 mg/kg bw)): 11.5 ± 4.0 nmol excreted; Cmax (nmol excreted) ([1]; Low dose (75 mg/kg bw)): 3.88 ± 1.46 nmol excreted; Cmax (nmol excreted) ([1]; Medium dose (350 mg/kg bw)): 10.1 ± 7.4 nmol excreted; Tmax ([1]; 75 mg/kg): 0 to 12 h; Tmax ([1]; 350 mg/kg): 0 to 12 h; Tmax ([1]; 1000 mg/kg): 0 to 12 h

For Caffeic acid sulfate, which “Qualitative Tmax (urine collection with greatest excretion)” value ([1]; High dose (1000 mg/kg bw)) is on record?
The value was 0 to 12 h.

What about the “Cmax (nmol excreted)” value ([1]; High dose (1000 mg/kg bw)) of the same compound?
The value was 9.74 ± 0.78 nmol excreted.

And the “Qualitative Tmax (urine collection with greatest excretion)” value ([1]; Low dose (75 mg/kg bw))?
Its value is “np”.

And the “Cmax (nmol excreted)” value ([1]; Low dose (75 mg/kg bw))?
The value was “np”.

And the “Qualitative Tmax (urine collection with greatest excretion)” value ([1]; Medium dose (350 mg/kg bw))?
Its value is 0 to 12 h.

And the “Cmax (nmol excreted)” value ([1]; Medium dose (350 mg/kg bw))?
The value was 6.43 ± 4.57 nmol excreted.

With delphinidin sulfate as the compound, how does the “Qualitative Tmax (urine collection with greatest excretion)” value ([1]; High dose (1000 mg/kg bw)) read?
The value was 0 to 24 h.

And the “Cmax (nmol excreted)” value ([1]; High dose (1000 mg/kg bw))?
Its value is 20.2 ± 2.4 nmol excreted.

What about the “Qualitative Tmax (urine collection with greatest excretion)” value ([1]; Low dose (75 mg/kg bw)) of the same compound?
The value was “np”.

And the “Cmax (nmol excreted)” value ([1]; Low dose (75 mg/kg bw))?
The value was “np”.

And the “Qualitative Tmax (urine collection with greatest excretion)” value ([1]; Medium dose (350 mg/kg bw))?
Its value is 0 to 24 h.

And the “Cmax (nmol excreted)” value ([1]; Medium dose (350 mg/kg bw))?
The value was 18.2 ± 2.4 nmol excreted.

With petunidin glucuronide as the compound, how does the “Qualitative Tmax (urine collection with greatest excretion)” value ([1]; High dose (1000 mg/kg bw)) read?
The value was 0 to 12 h.

And the “Cmax (nmol excreted)” value ([1]; High dose (1000 mg/kg bw))?
The value was 3.49 ± 0.46 nmol excreted.

What about the “Qualitative Tmax (urine collection with greatest excretion)” value ([1]; Low dose (75 mg/kg bw)) of the same compound?
The value was “np”.

And the “Cmax (nmol excreted)” value ([1]; Low dose (75 mg/kg bw))?
The value was “np”.

And the “Qualitative Tmax (urine collection with greatest excretion)” value ([1]; Medium dose (350 mg/kg bw))?
Its value is 0 to 12 h.

And the “Cmax (nmol excreted)” value ([1]; Medium dose (350 mg/kg bw))?
Its value is 0.92 ± 0.24 nmol excreted.
